Measured values: patent US10500164B2, “Nanoparticle-based combinatorial therapy” (The American University in Cairo, priority 2014, dated 2019)

Assay: In-vitro drug release of DOX in Tris-HCl buffer pH 5 and PBS pH 7.4
Assay type: physicochemical
Settings: free DOX solution control, over 4 hrs
Experimental: FIGS. 7A-B show according to an exemplary embodiment of the invention in-vitro release of free DOX, and DOX-NCs in Tris-HCl buffer pH 5 (FIG. 7A) and PBS pH 7.4 (FIG. 7B).
Since the release behavior of DOX-NCs at the desired site is of a great importance for formulating an ideal cancer-targeted drug delivery system, in-vitro release studies were performed at two different pH values were tested: pH 7.4, which mimics the pH of the blood stream and pH 5, which mimics the pH of the endosomes within cancer cells. In-vitro results […] that DOX-AgNCs, DOX-Ag/PVA NCs, DOX-Ag/PEG NCs and DOX-Ag/PVP NCs released 96.6%, 97.4%, 98% and 96.4% of DOX at pH 5. While at pH 7.4, the release percentages of DOX were 73.4%, 54.3%, 59.8% and 68.5% over the course of 6 hrs. […] In-vitro release is shown of free DOX, and DOX-NCs in Tris-HCl buffer pH 5 (FIG. 7A) and PBS pH 7.4 (FIG. 7B).

- release percentage of DOX (pH 5): 97.4%
- release percentage of DOX (pH 7.4): 67.7%
SMILES: COc1cccc2c1C(=O)c1c(O)c3c(c(O)c1C2=O)C[C@@](O)(C(=O)CO)C[C@@H]3O[C@H]1C[C@H](N)[C@H](O)[C@H](C)O1 [free DOX, Doxorubicin]
